Our source for the remaining binding values is patent publication US10870647B2, “Imidazopyridine derivative, method for preparing same, and pharmaceutical composition containing same as active ingredient for preventing or treating cancer” (DAEGU-GYEONGBUK MEDICAL INNOVATION FOUNDATION, priority 2016, dated 2020).

Test in all cases: Kinase selectivity, scanMAX Kinase assay panel (DiscoverX), % control at 1 uM
Common to all, as to assay type: binding

Test [1] has as its target T1, scanMAX Kinase assay panel (Homo sapiens, UniProt Q04759).
T1 construct: purchased DiscoverX
As to conditions: PRKCQ; 1 uM; read-out: Percent Control (%). The gist of the method:
(§1)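 Binding across the scanMAX kinase panel was tested at 1 uM compound. % control = (compound − positive control)/(negative control − positive control) × 100; below 35 counted as active.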

The target in test [2] is T2, scanMAX Kinase assay panel (Homo sapiens, UniProt Q8N5S9).
T2 construct: purchased DiscoverX
T2 sequence (Q8N5S9 whole entry): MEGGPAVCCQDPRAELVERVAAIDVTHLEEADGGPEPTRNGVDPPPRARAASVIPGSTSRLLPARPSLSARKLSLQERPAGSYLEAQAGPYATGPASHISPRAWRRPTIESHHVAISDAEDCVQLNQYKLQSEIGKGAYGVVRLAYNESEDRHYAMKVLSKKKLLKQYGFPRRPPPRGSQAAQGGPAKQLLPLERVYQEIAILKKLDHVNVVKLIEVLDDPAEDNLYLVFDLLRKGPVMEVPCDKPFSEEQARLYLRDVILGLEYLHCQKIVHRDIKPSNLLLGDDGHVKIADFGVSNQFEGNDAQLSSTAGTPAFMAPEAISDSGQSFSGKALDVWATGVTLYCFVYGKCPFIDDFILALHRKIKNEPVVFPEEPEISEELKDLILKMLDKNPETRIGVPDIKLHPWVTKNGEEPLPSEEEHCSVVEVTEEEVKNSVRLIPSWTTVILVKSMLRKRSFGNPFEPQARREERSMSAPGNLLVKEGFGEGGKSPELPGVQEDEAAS
As to conditions: CAMKK1; 1 uM; read-out: Percent Control (%). The gist of the method:
as §1

Test [3] deals with T3, scanMAX Kinase assay panel (Homo sapiens, UniProt Q9UQ88).
T3 construct: purchased DiscoverX
T3 sequence (Q9UQ88 1-783): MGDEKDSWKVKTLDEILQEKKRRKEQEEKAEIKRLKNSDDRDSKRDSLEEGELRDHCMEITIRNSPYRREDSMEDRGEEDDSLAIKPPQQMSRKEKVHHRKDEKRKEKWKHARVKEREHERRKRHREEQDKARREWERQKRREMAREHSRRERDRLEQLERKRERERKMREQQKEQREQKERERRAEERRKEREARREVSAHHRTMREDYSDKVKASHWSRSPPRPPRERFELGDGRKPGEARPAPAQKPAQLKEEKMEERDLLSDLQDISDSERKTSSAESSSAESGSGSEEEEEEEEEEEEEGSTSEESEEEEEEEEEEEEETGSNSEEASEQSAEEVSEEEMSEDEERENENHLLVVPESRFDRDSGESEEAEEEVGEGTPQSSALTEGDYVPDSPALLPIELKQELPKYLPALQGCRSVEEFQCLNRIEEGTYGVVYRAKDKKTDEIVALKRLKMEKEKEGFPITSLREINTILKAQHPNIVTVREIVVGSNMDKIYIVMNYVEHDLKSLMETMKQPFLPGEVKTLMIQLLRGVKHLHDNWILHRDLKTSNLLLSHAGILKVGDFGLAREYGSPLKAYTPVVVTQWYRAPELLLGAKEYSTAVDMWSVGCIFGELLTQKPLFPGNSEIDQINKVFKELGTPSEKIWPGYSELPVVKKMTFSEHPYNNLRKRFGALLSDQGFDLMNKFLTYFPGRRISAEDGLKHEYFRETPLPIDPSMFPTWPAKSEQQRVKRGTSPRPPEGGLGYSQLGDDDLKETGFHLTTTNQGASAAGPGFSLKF
As to conditions: CDC2L2; 1 uM; read-out: Percent Control (%). In a few lines:
as §1

In test [4] the target is T4, scanMAX Kinase assay panel (Homo sapiens, UniProt P42336, E542K).
T4 construct: purchased DiscoverX
T4 sequence (P42336 whole entry E542K): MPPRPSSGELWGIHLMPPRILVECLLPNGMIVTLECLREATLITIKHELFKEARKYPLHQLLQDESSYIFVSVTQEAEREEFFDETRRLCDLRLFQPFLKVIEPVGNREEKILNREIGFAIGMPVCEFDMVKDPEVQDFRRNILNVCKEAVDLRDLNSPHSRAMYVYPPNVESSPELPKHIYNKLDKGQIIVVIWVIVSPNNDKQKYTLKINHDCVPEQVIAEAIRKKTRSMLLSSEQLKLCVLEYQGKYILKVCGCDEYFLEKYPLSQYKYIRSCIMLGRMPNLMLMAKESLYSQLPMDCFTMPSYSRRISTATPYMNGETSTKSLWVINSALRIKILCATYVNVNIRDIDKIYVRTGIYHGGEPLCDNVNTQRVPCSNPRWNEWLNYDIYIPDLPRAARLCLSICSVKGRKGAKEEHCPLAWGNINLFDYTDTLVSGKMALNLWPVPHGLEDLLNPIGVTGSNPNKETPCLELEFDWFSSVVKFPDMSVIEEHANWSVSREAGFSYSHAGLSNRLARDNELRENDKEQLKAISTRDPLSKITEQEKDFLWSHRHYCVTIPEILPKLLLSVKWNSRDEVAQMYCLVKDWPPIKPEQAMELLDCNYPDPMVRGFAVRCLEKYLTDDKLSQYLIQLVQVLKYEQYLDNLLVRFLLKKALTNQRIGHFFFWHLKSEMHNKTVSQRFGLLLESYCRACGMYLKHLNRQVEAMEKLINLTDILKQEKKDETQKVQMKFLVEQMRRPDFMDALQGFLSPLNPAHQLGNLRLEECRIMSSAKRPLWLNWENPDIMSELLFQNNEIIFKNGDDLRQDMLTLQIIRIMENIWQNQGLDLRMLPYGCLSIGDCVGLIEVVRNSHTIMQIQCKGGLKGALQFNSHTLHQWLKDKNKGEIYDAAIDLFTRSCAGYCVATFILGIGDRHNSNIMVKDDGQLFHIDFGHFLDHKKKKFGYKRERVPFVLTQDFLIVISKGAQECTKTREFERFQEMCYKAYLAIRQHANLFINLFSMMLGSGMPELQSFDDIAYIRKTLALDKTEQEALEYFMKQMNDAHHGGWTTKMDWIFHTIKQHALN
As to conditions: PIK3CA (E542K); 1 uM; read-out: Percent Control (%). The gist of the method: as §1

Test [5] concerns the target T5, scanMAX Kinase assay panel (Homo sapiens, UniProt P49761).
T5 construct: purchased DiscoverX
As to conditions: CLK3; 1 uM; read-out: Percent Control (%). In a few lines: as §1

The target in test [6] is T6, scanMAX Kinase assay panel (Homo sapiens, UniProt Q96BR1).
T6 construct: purchased DiscoverX
T6 sequence (Q96BR1 1-496): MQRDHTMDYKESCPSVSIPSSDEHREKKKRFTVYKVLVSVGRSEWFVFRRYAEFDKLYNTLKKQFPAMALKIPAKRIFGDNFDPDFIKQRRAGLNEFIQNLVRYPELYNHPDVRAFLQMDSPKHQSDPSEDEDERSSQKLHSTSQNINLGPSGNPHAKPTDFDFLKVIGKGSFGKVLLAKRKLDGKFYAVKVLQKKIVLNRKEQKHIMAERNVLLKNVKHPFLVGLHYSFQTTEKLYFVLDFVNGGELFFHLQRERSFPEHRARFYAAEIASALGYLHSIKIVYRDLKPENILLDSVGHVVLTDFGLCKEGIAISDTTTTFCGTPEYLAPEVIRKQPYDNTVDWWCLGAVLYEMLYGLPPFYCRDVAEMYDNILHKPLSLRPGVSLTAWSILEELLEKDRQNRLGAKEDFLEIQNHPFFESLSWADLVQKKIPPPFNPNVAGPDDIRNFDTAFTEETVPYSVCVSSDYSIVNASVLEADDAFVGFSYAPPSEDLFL
As to conditions: SGK3; 1 uM; read-out: Percent Control (%). In a few lines:
as §1

Test [7] addresses T7, scanMAX Kinase assay panel (Homo sapiens, UniProt P31749).
T7 construct: purchased DiscoverX
As to conditions: AKT1; 1 uM; read-out: Percent Control (%). The gist of the method: as §1

Test [8] addresses T8, scanMAX Kinase assay panel (Homo sapiens, UniProt P35626).
T8 construct: purchased DiscoverX
T8 sequence (P35626 1-688): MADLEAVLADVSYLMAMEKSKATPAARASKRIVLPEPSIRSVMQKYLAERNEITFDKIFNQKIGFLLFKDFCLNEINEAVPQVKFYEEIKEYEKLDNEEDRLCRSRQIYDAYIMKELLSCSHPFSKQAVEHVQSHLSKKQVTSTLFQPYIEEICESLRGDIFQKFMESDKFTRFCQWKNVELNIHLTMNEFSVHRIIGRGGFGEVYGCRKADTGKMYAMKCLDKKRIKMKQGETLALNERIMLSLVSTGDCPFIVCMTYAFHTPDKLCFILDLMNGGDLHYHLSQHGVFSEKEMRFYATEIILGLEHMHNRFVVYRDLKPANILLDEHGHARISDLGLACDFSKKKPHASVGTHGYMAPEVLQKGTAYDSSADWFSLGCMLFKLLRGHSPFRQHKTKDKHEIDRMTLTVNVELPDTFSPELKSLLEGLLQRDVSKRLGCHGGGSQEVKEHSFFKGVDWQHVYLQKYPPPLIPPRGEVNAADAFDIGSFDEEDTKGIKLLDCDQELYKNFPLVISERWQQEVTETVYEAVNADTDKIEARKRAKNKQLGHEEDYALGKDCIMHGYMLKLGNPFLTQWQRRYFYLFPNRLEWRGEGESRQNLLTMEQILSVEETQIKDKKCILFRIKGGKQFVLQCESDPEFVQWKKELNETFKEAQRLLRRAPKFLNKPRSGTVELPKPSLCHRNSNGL
As to conditions: GRK3; 1 uM; read-out: Percent Control (%). The gist of the method:
as §1

T1 sequence (Q04759 whole entry): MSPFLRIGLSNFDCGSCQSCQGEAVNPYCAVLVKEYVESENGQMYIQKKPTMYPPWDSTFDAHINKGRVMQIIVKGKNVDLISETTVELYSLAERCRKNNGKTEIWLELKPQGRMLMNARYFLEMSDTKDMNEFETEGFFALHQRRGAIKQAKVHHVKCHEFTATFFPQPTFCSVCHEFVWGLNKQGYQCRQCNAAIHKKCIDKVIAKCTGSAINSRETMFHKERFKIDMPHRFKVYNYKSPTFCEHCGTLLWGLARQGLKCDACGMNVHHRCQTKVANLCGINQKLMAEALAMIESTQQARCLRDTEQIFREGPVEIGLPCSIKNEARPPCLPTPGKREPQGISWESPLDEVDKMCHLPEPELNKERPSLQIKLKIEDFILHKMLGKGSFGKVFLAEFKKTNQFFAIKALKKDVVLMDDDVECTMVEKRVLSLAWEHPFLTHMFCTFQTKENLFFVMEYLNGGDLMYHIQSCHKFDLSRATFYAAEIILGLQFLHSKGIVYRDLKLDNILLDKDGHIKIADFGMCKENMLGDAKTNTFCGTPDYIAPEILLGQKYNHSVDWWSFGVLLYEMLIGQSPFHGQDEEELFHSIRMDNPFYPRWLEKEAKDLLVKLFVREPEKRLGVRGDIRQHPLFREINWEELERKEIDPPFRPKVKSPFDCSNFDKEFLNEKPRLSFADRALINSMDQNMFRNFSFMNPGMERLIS
T5 sequence (P49761 whole entry): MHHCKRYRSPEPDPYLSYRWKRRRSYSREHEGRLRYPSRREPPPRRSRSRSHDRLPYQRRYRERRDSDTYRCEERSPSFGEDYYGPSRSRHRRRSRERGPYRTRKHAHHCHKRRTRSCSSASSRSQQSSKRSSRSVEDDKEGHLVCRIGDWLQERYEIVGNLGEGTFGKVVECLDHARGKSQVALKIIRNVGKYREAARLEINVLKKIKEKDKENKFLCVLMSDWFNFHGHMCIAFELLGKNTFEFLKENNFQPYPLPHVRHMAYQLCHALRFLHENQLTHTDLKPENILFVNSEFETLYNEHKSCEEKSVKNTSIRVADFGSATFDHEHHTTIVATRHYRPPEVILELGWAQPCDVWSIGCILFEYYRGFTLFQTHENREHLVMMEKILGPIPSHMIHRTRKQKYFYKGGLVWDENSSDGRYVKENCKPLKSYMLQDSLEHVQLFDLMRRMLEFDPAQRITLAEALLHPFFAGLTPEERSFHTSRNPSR
T7 sequence (P31749 whole entry): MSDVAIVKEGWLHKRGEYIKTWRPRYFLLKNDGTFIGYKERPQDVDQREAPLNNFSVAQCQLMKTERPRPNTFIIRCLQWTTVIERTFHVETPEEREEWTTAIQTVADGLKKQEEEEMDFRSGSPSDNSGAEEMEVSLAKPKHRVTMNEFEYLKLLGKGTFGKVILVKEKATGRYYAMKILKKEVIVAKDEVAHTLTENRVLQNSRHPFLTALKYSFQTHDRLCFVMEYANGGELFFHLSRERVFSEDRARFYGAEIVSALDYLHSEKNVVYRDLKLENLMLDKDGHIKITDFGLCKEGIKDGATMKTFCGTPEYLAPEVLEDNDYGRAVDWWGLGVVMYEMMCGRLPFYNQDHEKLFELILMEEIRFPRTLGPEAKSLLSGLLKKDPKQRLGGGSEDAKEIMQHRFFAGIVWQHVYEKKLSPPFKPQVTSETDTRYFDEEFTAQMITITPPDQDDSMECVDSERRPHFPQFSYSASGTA

Take `Cc1ccc(C(=O)Nc2ccc(CN3CCN(C)CC3)c(C(F)(F)F)c2)cc1C#Cc1cnc2c(Nc3cnn(C)c3)cccn12` [Example 1, 4-methyl-3-((8-((1-methyl-1H-pyrazol-4-yl)amino)imidazo[1,2-a]pyridin-3-yl)ethynyl)-N-(4-((4-methylpiperazin-1-yl)methyl)-3-(trifluoromethyl)phenyl)benzamide]: the remaining binding at 1 µM was 53% in test [1]; 23% in test [2]; 28% in test [3]; 100% in test [4]; 48% in test [5]; 97% in test [6]. In addition, the remaining binding at 1 µM in test [7] was determined as 80%; in test [8], 82%.

For the compound `Cc1ccc(NC(=O)C2(C(=O)Nc3ccc(F)cc3)CC2)cc1C#Cc1cnc2c(Nc3cnn(C(C)C)c3)cccn12` [Example 78], the remaining binding at 1 µM in test [1] turned out to be 85%; in test [2], 100%; in test [3], 100%; in test [4], 100%; in test [5] it was 100%; in test [6], 78%. Also, the remaining binding at 1 µM in test [7] is 98%; in test [8] it was 97%.

For the compound `Cc1cn(-c2cc(NC(=O)c3ccc(C)c(C#Cc4cnc5c(Nc6cnn(C)c6)cccn45)c3)cc(C(F)(F)F)c2)cn1` [Example 12, 4-methyl-N-(3-(4-methyl-1H-imidazol-1-yl)-5-(trifluoromethyl)phenyl)-3-((8-((1-methyl-1H-pyrazol-4-yl)amino)imidazo[1,2-a]pyridin-3-yl)ethynyl)benzamide], the remaining binding at 1 µM came out at 87% in test [1]; 81% in test [2]; 72% in test [3]; 100% in test [4]; 100% in test [5]; 100% in test [6]. For the same compound, the figures for the remaining binding at 1 µM in test [7] and in test [8] were 88% and 100%, respectively.
